From patent publication US10670605B2, “Cysteine reactive probes and uses thereof” (The Scripps Research Institute, priority 2015, dated 2020)

Columns and labels:
Test in all cases: Competitive isoTOP-ABPP in situ (fragment-treated cells)
Assay type in all cases: cell-based
[1] = target: T1, cysteines in MDA-MB-231 and Ramos cells (Homo sapiens, UniProt P57764)
T1 sequence (P57764 1-484): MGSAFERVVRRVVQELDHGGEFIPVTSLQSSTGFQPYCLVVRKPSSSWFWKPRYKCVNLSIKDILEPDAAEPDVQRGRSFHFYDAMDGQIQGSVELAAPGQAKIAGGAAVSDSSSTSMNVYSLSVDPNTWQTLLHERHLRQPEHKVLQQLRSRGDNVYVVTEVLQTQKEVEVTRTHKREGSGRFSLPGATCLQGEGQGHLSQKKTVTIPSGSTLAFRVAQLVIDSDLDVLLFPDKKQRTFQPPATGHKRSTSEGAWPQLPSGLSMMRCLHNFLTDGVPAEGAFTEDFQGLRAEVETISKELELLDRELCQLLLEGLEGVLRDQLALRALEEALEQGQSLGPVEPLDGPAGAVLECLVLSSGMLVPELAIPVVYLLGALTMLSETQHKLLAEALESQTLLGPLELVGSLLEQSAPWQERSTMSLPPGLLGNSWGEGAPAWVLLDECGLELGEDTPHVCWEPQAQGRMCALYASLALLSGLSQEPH

[2] = target: T2, cysteines in MDA-MB-231 and Ramos cells (Homo sapiens, UniProt Q13418)
T2 sequence (Q13418 1-452): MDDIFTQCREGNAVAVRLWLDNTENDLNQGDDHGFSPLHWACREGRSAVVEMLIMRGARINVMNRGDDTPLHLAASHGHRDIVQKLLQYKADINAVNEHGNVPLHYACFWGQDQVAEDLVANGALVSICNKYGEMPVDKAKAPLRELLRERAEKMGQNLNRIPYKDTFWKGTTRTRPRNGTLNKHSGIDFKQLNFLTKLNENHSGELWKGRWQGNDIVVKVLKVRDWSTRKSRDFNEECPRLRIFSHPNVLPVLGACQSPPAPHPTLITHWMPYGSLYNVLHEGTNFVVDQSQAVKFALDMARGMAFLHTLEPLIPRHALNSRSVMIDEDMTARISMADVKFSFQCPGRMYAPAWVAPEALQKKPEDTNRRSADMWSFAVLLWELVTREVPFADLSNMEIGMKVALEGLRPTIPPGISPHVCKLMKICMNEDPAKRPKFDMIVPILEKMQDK

[3] = target: cysteines in MDA-MB-231 and Ramos cells (Homo sapiens, UniProt Q15021)
Sequence of cysteines in MDA-MB-231 and Ramos cells (Homo sapiens, UniProt Q15021) (Q15021 whole entry): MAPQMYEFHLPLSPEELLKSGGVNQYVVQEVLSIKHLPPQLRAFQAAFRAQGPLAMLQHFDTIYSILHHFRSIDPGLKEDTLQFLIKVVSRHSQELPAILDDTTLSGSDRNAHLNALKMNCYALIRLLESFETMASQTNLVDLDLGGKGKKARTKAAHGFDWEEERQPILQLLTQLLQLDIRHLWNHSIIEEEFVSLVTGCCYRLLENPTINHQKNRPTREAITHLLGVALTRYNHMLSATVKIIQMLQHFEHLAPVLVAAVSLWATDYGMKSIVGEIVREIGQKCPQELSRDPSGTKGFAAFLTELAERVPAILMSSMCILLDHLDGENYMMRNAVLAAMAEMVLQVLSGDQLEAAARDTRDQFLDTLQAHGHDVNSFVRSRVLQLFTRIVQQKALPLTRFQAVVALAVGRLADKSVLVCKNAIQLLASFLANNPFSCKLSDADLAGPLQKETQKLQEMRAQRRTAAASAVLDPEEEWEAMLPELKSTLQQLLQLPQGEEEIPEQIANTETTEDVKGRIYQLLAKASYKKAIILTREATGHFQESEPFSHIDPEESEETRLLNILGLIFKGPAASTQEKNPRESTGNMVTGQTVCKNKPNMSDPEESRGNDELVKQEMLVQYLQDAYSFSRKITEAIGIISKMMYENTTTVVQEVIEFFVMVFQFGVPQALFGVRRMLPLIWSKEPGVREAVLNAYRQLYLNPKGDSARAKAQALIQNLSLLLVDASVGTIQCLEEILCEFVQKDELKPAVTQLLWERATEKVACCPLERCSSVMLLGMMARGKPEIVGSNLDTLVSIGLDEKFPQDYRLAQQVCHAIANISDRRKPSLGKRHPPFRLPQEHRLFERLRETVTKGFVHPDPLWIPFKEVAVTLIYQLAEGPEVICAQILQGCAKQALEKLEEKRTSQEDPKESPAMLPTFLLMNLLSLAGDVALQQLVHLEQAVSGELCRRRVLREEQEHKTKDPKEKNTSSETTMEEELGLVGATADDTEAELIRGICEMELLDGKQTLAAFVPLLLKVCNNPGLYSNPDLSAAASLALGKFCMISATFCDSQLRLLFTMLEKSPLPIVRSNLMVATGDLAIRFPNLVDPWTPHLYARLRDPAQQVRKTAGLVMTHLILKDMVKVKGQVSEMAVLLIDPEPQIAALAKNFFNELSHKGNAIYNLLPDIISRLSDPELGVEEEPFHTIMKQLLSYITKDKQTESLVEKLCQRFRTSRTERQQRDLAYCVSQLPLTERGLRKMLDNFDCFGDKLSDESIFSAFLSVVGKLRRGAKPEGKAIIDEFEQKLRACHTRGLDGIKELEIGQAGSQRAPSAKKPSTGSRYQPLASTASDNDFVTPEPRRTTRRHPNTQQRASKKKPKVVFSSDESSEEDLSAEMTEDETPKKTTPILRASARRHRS

[4] = target: T3, cysteines in MDA-MB-231 and Ramos cells (Homo sapiens, UniProt Q15084)
T3 sequence (Q15084 20-440): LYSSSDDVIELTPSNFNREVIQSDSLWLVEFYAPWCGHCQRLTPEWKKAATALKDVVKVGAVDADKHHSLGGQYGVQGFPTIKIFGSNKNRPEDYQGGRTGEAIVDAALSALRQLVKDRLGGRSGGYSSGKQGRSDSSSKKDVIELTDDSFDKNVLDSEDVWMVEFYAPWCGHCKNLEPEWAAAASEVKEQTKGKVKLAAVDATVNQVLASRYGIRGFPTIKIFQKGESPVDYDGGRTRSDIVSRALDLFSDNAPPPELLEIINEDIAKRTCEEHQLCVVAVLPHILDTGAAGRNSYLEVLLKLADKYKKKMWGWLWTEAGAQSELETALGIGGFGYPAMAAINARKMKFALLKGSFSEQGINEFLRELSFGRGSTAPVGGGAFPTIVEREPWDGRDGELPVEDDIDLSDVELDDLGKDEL

[5] = target: cysteines in MDA-MB-231 and Ramos cells (Homo sapiens, UniProt Q93009)
Sequence of cysteines in MDA-MB-231 and Ramos cells (Homo sapiens, UniProt Q93009) (Q93009 whole entry): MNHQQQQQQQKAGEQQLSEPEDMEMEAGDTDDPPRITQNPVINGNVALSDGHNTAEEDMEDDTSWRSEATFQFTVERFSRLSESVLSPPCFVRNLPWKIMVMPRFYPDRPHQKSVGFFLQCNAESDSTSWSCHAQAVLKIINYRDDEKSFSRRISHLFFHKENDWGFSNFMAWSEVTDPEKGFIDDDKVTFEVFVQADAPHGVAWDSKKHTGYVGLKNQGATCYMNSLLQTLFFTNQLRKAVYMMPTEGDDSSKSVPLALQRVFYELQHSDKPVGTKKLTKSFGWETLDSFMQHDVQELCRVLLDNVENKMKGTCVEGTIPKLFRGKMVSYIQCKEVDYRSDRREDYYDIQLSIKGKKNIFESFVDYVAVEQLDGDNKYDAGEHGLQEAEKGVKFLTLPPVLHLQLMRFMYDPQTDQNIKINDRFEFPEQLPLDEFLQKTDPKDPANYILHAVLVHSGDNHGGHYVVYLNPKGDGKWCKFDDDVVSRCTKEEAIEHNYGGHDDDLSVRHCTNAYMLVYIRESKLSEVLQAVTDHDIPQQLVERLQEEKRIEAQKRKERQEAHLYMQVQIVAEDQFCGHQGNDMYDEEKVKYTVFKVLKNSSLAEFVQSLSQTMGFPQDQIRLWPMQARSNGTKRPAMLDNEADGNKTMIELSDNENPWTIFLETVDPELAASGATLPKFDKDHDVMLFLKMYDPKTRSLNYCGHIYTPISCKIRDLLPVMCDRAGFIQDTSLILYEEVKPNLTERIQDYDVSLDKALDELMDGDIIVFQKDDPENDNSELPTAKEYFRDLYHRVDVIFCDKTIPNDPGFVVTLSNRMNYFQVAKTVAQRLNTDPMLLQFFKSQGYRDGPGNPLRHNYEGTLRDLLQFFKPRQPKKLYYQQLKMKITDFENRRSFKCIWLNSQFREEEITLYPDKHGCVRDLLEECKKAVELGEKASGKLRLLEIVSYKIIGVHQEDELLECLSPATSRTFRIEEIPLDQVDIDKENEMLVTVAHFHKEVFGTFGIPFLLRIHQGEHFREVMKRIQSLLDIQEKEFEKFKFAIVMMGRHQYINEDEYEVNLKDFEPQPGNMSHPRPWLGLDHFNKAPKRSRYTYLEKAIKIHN

[6] = target: T4, cysteines in MDA-MB-231 and Ramos cells (Homo sapiens, UniProt Q9NRG0)
T4 sequence (Q9NRG0 1-131): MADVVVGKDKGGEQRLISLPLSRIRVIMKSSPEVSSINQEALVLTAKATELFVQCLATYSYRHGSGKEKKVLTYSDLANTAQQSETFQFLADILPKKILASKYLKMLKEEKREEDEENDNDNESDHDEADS

[7] = target: T5, cysteines in MDA-MB-231 and Ramos cells (Homo sapiens, UniProt Q9NYL9)
T5 sequence (Q9NYL9 1-352): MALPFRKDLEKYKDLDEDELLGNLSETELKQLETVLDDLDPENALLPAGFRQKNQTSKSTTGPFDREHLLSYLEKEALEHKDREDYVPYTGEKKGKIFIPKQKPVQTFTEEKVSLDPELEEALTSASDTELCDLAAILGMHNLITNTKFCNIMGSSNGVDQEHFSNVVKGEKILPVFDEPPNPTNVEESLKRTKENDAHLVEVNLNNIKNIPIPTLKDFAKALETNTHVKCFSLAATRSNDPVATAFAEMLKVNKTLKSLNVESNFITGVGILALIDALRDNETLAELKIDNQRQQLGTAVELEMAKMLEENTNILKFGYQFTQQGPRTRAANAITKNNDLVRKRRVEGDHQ

[8] = target: T6, cysteines in MDA-MB-231 and Ramos cells (Homo sapiens, UniProt Q9ULW0)
T6 sequence (Q9ULW0 1-747): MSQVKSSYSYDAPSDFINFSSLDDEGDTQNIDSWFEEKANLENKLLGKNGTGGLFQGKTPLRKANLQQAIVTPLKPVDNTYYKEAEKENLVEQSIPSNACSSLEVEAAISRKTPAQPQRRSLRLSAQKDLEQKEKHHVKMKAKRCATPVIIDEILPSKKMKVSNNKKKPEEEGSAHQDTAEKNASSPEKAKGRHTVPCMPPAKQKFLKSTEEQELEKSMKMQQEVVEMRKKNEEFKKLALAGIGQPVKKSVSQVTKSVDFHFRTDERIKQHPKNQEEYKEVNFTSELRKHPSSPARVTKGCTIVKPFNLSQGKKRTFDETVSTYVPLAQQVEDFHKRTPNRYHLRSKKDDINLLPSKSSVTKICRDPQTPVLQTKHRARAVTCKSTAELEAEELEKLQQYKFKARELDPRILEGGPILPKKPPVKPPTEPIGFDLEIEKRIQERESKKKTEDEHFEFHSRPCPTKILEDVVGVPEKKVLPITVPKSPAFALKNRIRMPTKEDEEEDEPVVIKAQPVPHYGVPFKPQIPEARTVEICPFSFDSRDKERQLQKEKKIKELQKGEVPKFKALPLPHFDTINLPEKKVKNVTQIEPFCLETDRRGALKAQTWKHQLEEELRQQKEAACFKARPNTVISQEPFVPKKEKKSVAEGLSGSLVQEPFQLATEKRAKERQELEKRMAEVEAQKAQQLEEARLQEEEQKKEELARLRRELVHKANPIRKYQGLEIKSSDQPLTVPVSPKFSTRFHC

| SMILES | isoTOP-ABPP ratio P57764_C268 ([1]; 200 μM, insitu, 231) | isoTOP-ABPP ratio Q13418_C346 ([2]; 200 μM, insitu, 231) | isoTOP-ABPP ratio Q15021_C439 ([3]; 200 μM, insitu, 231) | isoTOP-ABPP ratio Q15084_C55 ([4]; 200 μM, insitu, 231) | isoTOP-ABPP ratio, Q15084_C190 ([4]; 200 μM, insitu, 231) | isoTOP-ABPP ratio Q93009_C223 ([5]; 200 μM, insitu, 231) | isoTOP-ABPP ratio Q9NRG0_C55 ([6]; 200 μM, insitu, 231) | isoTOP-ABPP ratio Q9NYL9_C132 ([7]; 200 μM, insitu, 231) | isoTOP-ABPP ratio Q9ULW0_C536 ([8]; 200 μM, insitu, 231) | also measured |
| --- | --- | --- | --- | --- | --- | --- | --- | --- | --- | --- |
| COc1ccc(C2CC(c3cccs3)=NN2C(=O)CCl)cc1 (stereo not shown) [compound 4] |  |  |  |  |  |  |  |  |  | isoTOP-ABPP reactivity P57764_C268 GSDMD ([1]; 100 μM in situ 231): 20.0; isoTOP-ABPP reactivity Q13418_C346 ILK ([2]; 100 μM in situ 231): 0.8; isoTOP-ABPP reactivity Q15021_C439 NCAPD2 ([3]; 100 μM in situ 231): 2.2; isoTOP-ABPP reactivity Q15084_C55 PDIA6 ([4]; 100 μM in situ 231): 4.9; isoTOP-ABPP reactivity Q15084_C190 PDIA6 ([4]; 100 μM in situ 231): 20.0; isoTOP-ABPP reactivity Q93009_C223 USP7 ([5]; 100 μM in situ 231): 6.8; isoTOP-ABPP reactivity Q9NRG0_C55 CHRAC1 ([6]; 100 μM in situ 231): 20.0; isoTOP-ABPP reactivity Q9NYL9_C132 TMOD3 ([7]; 100 μM in situ 231): 0.8; isoTOP-ABPP reactivity Q9ULW0_C536 TPX2 ([8]; 100 μM in situ 231): 20.0 |
| Cn1cc(S(=O)(=O)N2CCOCC2)cc1C(=O)NC(=O)CCl [compound 11] |  |  |  |  |  |  |  |  |  | isoTOP-ABPP ratio P57764_C268 ([1]; 100 μM in situ 231): 0.7; isoTOP-ABPP ratio Q13418_C346 ([2]; 100 μM in situ 231): 0.6; isoTOP-ABPP ratio Q15021_C439 ([3]; 100 μM in situ 231): 0.9; isoTOP-ABPP ratio Q15084_C55 ([4]; 100 μM in situ 231): 4.3; isoTOP-ABPP ratio Q93009_C223 ([5]; 100 μM in situ 231): 1.0; isoTOP-ABPP ratio Q9NRG0_C55 ([6]; 100 μM in situ 231): 1.1; isoTOP-ABPP ratio Q9NYL9_C132 ([7]; 100 μM in situ 231): 0.5; isoTOP-ABPP ratio Q9ULW0_C536 ([8]; 100 μM in situ 231): 1.4 |
| CC(C)CCOCCNC(=O)CCl [compound 27] | 0.6 | 0.6 | 0.6 | 1.2 | 1.0 | 1.1 | 0.9 | 0.6 | 1.1 |  |
| C=CC(=O)Nc1cc(F)c(N2CCN(C(=O)OC(C)(C)C)CC2)c(F)c1 [compound 38] | 1.8 | 1.0 | 1.1 | 0.8 | 1.0 | 0,8 | 1.0 | 2.6 | 1.2 |  |
| O=C(CCl)Nc1cccc2ncccc12 [compound 51] | 1.8 | 0.8 | 1.1 | 5.0 |  | 1.0 | 1.1 | 0.8 | 1.4 |  |
